Laboratory results as given in the supplement of paper PMC10307832.

How the values were obtained:
Test in all cases: relative viability (nuclei count vs DMSO), 5 days (fraction); higher = more cells survive
[1] = compound: C1=CC=C(C(=C1)C2=CC=C(C=C2)C3=CSC4=C3C(=C(C(=O)N4)C#N)O)O + CC1(C)CCC(c2ccc(Cl)cc2)=C(CN2CCN(c3ccc(C(=O)NS(=O)(=O)c4ccc(N[C@H](CCN5CCOCC5)CSc5ccccc5)c(S(=O)(=O)C(F)(F)F)c4)cc3)CC2)C1 [Navitoclax] (partner 0.5 µM)
How it was run: (§1)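 Lung cancer cell lines, seeded in 1536-well plates, were treated the following day by pin tool with a single drug or with five library-drug doses (not always all listed) in √10 steps on top of a fixed anchor-drug dose. Cells were fixed and nuclei stained in one step after 5 days, and nuclei were counted. Relative viability is the nuclei count for treated wells divided by that for vehicle wells, reported as medians of duplicate plates.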

[2] = compound: CC1=CN2C(=O)C=C(N=C2C(=C1)C(C)NC3=CC=CC=C3)N4CCOCC4 [TGX 221] + CC(=O)c1c(C)c2cnc(Nc3ccc(N4CCNCC4)cn3)nc2n(C2CCCC2)c1=O [Palbociclib] (partner 0.5 µM)
How it was run: as §1

[3] = compound: CC1=CN2C(=O)C=C(N=C2C(=C1)C(C)NC3=CC=CC=C3)N4CCOCC4 [TGX 221] + CC1(C)CCC(c2ccc(Cl)cc2)=C(CN2CCN(c3ccc(C(=O)NS(=O)(=O)c4ccc(N[C@H](CCN5CCOCC5)CSc5ccccc5)c(S(=O)(=O)C(F)(F)F)c4)cc3)CC2)C1 [Navitoclax] (partner 0.5 µM)
How it was run: as §1

[4] = compound: O=C(CCCCCCNC(=O)c1cnc(N(c2ccccc2)c2ccccc2)nc1)NO [Ricolinostat] + Nc1nc2[nH]cc(CCc3ccc(C(=O)N[C@@H](CCC(=O)O)C(=O)O)cc3)c2c(=O)[nH]1 [Pemetrexed] (partner 0.2 µM)
How it was run: as §1

Question: What does the source list for SK-MES-1?
Answer: relative viability ([1]; first compound 0.08 µM): 1.34; relative viability ([1]; first compound 0.253 µM): 1.34; relative viability ([1]; first compound 0.8 µM): 1.3; relative viability ([1]; first compound 2.53 µM): 1.14; relative viability ([1]; first compound 8 µM): 1; relative viability ([2]; first compound 0.08 µM): 0.304; relative viability ([2]; first compound 0.253 µM): 0.336; relative viability ([2]; first compound 0.8 µM): 0.308; relative viability ([2]; first compound 2.53 µM): 0.287; relative viability ([2]; first compound 8 µM): 0.323; relative viability ([3]; first compound 0.08 µM): 1.17; relative viability ([3]; first compound 0.253 µM): 1.05; relative viability ([3]; first compound 0.8 µM): 1.13; relative viability ([3]; first compound 2.53 µM): 1.05; relative viability ([3]; first compound 8 µM): 0.996; relative viability ([4]; first compound 0.08 µM): 0.878; relative viability ([4]; first compound 0.253 µM): 0.982; relative viability ([4]; first compound 0.8 µM): 0.876; relative viability ([4]; first compound 2.53 µM): 0.91

Question: For SW 1573, which relative viability ([1]; first compound 0.08 µM) is on record?
Answer: 0.965

Question: What about the relative viability ([1]; first compound 0.253 µM) of the same cell line?
Answer: 0.902

Question: And the relative viability ([1]; first compound 0.8 µM)?
Answer: 0.901

Question: And the relative viability ([1]; first compound 2.53 µM)?
Answer: 0.976

Question: What about the relative viability ([1]; first compound 8 µM) of the same cell line?
Answer: 0.784

Question: And the relative viability ([2]; first compound 0.08 µM)?
Answer: 0.299

Question: What about the relative viability ([2]; first compound 0.253 µM) of the same cell line?
Answer: 0.313

Question: And the relative viability ([2]; first compound 0.8 µM)?
Answer: 0.39

Question: What about the relative viability ([2]; first compound 2.53 µM) of the same cell line?
Answer: 0.341

Question: And the relative viability ([2]; first compound 8 µM)?
Answer: 0.343

Question: What about the relative viability ([3]; first compound 0.08 µM) of the same cell line?
Answer: 0.814

Question: And the relative viability ([3]; first compound 0.253 µM)?
Answer: 0.811

Question: And the relative viability ([3]; first compound 0.8 µM)?
Answer: 0.926

Question: And the relative viability ([3]; first compound 2.53 µM)?
Answer: 0.821

Question: And the relative viability ([3]; first compound 8 µM)?
Answer: 0.753

Question: And the relative viability ([4]; first compound 0.08 µM)?
Answer: 0.857

Question: What about the relative viability ([4]; first compound 0.253 µM) of the same cell line?
Answer: 0.742

Question: What about the relative viability ([4]; first compound 0.8 µM) of the same cell line?
Answer: 1.07

Question: And the relative viability ([4]; first compound 2.53 µM)?
Answer: 0.864

Question: With UMC-11 as the cell line, how does the relative viability ([1]; first compound 0.08 µM) read?
Answer: 0.321

Question: What about the relative viability ([1]; first compound 0.253 µM) of the same cell line?
Answer: 0.301

Question: And the relative viability ([1]; first compound 0.8 µM)?
Answer: 0.321

Question: What about the relative viability ([1]; first compound 2.53 µM) of the same cell line?
Answer: 0.314

Question: And the relative viability ([1]; first compound 8 µM)?
Answer: 0.318

Question: And the relative viability ([2]; first compound 0.08 µM)?
Answer: 0.299

Question: And the relative viability ([2]; first compound 0.253 µM)?
Answer: 0.328

Question: And the relative viability ([2]; first compound 0.8 µM)?
Answer: 0.306

Question: And the relative viability ([2]; first compound 2.53 µM)?
Answer: 0.338

Question: What about the relative viability ([2]; first compound 8 µM) of the same cell line?
Answer: 0.374

Question: What about the relative viability ([3]; first compound 0.08 µM) of the same cell line?
Answer: 0.352

Question: And the relative viability ([3]; first compound 0.253 µM)?
Answer: 0.304

Question: What about the relative viability ([3]; first compound 0.8 µM) of the same cell line?
Answer: 0.337

Question: What about the relative viability ([3]; first compound 2.53 µM) of the same cell line?
Answer: 0.283

Question: What about the relative viability ([3]; first compound 8 µM) of the same cell line?
Answer: 0.259

Question: What about the relative viability ([4]; first compound 0.08 µM) of the same cell line?
Answer: 0.751

Question: And the relative viability ([4]; first compound 0.253 µM)?
Answer: 0.767

Question: And the relative viability ([4]; first compound 0.8 µM)?
Answer: 0.728

Question: And the relative viability ([4]; first compound 2.53 µM)?
Answer: 0.374
